How the values were obtained:
[1] = tested on: proteases from the fourth larval instars of R. ferrugineus's midgut; assay: Specific protease inhibitors on midgut proteases (in vitro, Figure S2); format: biochemical, Rhynchophorus ferrugineus; details: purified proteases of fourth larval instar midgut
Description: The activity of cysteine proteinase was determined in the fourth midgut instar larval homogenate of R. ferrugineus using the substrate Z-Phe-Arg-MNA [1]. Ten larvae were carefully removed, dissected, and rinsed repeatedly with NaCl solution (0.9% (w/v). The midgut instar was homogenized in protease assay buffer (500 µL) [5 mM DTT, 50 mM HEPS (N-2-Hydroxyethyl piperazin-N’-2-ethanesulfonic acid), pH 8.0, and 0.1 percent Triton X-100]. The reaction mixture was centrifuged for 30 min at 5000 rpm (Sigma 3k30 cooling centrifuge). The supernatant was utilized to determine the overall activity of proteolytic enzymes and the protein content. The supernatant (10 µL) was incubated for 30 min at 37 °C, and the volume was adjusted to 60 µL using assay buffer (pH 8) before adding 100 µL of substrate (0.5 mM). Prior to adding the substrate, 10 µL enzyme samples were pre-incubated with iodoacetic acid for 10 min. After 60 min at 37 °C of mixture incubation, the reaction was halted with the addition of 1.5 mL mersalyl (5 mM), 0.02 mg/mL fast garnet reactive solution, and 2% Tween 20. The reaction was centrifuged (at 5000 rpm, 6 min), then the absorbance was determined (at 520 nm). The activity of cysteine proteinase was measured using an ELISA quick plate reader at the OD520/60 min/mg of midgut protein. As a blank, a test mixture devoid of enzyme was used. […] The fourth homogenates of midgut larval were produced as reported before in the experiment for determining enzyme activity. […]
To learn more about the proteases found in homogenate preparations of R. ferrugineus fourth midgut larval instars, inhibitors from many different types of mechanisms were used. […] The absorbance of the enzymes was determined using an ELISA plate quick reader at various wavelengths. The percentage activity of the control enzyme for each inhibitor was evaluated for each enzyme. Protease activity was assayed in vivo in the R. ferrugineus fourth midgut larval instars, which were treated with 1, 10, 50, 100, 500, 1000, and 5000 mg/L of extracts or compounds, measured as described above. […]

total proteases [2] = assay: Total proteolytic activity of fourth instar midgut homogenate, azocasein (in vitro); format: biochemical, Rhynchophorus ferrugineus; details: fourth instar larvae midgut homogenate
Description: (§1) The Lowry technique was used to determine the protein concentrations. Total proteolytic activity was determined in the fourth midgut instar larval (lab strain) homogenate of R. ferrugineus with azocasein in accordance with […] et al. […] [70]. […] Using a Sigma 3k30 cooling centrifuge, reserve homogenates prepared in a previous stage were spun at 5000 rpm for 30 min. Estimates of protein content and total proteolytic enzyme activity were made using the supernatants. The supernatant (10 μL) was incubated at 37 °C for 20 min, and the volume was adjusted to 60 μL using an assay buffer (pH 8), before adding azocasien (200 μL, 2% (w/v)). […] Following that, to activate the reaction, the substrate was introduced 20 min for Leupeptin, so the reaction was halted after 180 min at 37 °C with 300 μL of cool tri-chloroacetic acid (TCA) (10% (v/v). The mixture was centrifuged for 20 min at 5000 rpm (Sigma 3k30 cooling centrifuge). […] To learn more about the proteases found in homogenate preparations of R. ferrugineus fourth midgut larval instars, inhibitors from many different types of mechanisms were used. […] As a control, an assay combination devoid of inhibitors was utilized. The absorbance of the enzymes was determined using an ELISA plate quick reader at various wavelengths. The percentage activity of the control enzyme for each inhibitor was evaluated for each enzyme. […] Larvae were exposed for 24 h to leaf discs treated with extract and compounds.

[3] = target: trypsin-like serine proteinase; assay: Serine proteinase microplate assay, BApNA (in vitro); format: biochemical, Rhynchophorus ferrugineus; details: fourth instar larvae midgut homogenate
Description: The specific activities of serine proteinase were determined using a rapid quick microplate assay with substrates in reaction mixtures (150 μL) including a serine protease assay buffer, according to […] et al. and Olga et al. with modifications. The midguts were homogenized in the assay buffer (100 mM Tris-HCl, pH 8.1) and centrifuged for 30 min at 8000 rpm (Sigma 3K 30, rotors No. 12158). […] […] (100 mg/mL in DMF), BAρNA (100 mg/mL in DMSO), and […] (100 mg/mL in DMF) stock substrates were diluted in the assay buffer to 1 mg/mL, and substrate volume was 50 μL. […] The activity was quantified using an ELISA plate reader at a wavelength of 405 nm. As an empty well, an assay combination containing a denaturation enzyme was utilized instead of an active enzyme. […] To learn more about the proteases found in homogenate preparations of R. ferrugineus fourth midgut larval instars, inhibitors from many different types of mechanisms were used. […] As a control, an assay combination devoid of inhibitors was utilized. The absorbance of the enzymes was determined using an ELISA plate quick reader at various wavelengths. The percentage activity of the control enzyme for each inhibitor was evaluated for each enzyme. […] Larvae were exposed for 24 h to leaf discs treated with extract and compounds.

cysteine protease [4] = assay: Cysteine proteinase activity, Z-Phe-Arg-MNA (in vitro); format: biochemical, Rhynchophorus ferrugineus; details: fourth instar larvae midgut homogenate
Description: The activity of cysteine proteinase was determined in the fourth midgut instar larval homogenate of R. ferrugineus using the substrate Z-Phe-Arg-MNA [1]. Ten larvae were carefully removed, dissected, and rinsed repeatedly with NaCl solution (0.9% (w/v). The midgut instar was homogenized in protease assay buffer (500 µL) [5 mM DTT, 50 mM HEPS (N-2-Hydroxyethyl piperazin-N’-2-ethanesulfonic acid), pH 8.0, and 0.1 percent Triton X-100]. The reaction mixture was centrifuged for 30 min at 5000 rpm (Sigma 3k30 cooling centrifuge). The supernatant was utilized to determine the overall activity of proteolytic enzymes and the protein content. The supernatant (10 µL) was incubated for 30 min at 37 °C, and the volume was adjusted to 60 µL using assay buffer (pH 8) before adding 100 µL of substrate (0.5 mM). Prior to adding the substrate, 10 µL enzyme samples were pre-incubated with iodoacetic acid for 10 min. After 60 min at 37 °C of mixture incubation, the reaction was halted with the addition of 1.5 mL mersalyl (5 mM), 0.02 mg/mL fast garnet reactive solution, and 2% Tween 20. The reaction was centrifuged (at 5000 rpm, 6 min), then the absorbance was determined (at 520 nm). The activity of cysteine proteinase was measured using an ELISA quick plate reader at the OD520/60 min/mg of midgut protein. As a blank, a test mixture devoid of enzyme was used. […] The fourth homogenates of midgut larval were produced as reported before in the experiment for determining enzyme activity. As previously disclosed, the inhibitory experiment was performed using a microplate assay. A series of inhibitor concentrations was created to determine the inhibitor’s maximal inhibitory effect. Leupeptin concentrations of 0.01, 0.05, 0.1, and 1.0 mM, PMSF concentrations of 0.1, 1.0, 10, and 50 mM, TLCK and TPCK concentrations of 0.01, 0.05, 0.1, 1, 50, and 100 mM, EDTA concentrations of 0.1, 1, 10, 50, and 100 mM, and iodoacetic acid concentrations of 0.01, 0.05, 0.1, and 1 mM.
(§2) As a control, an assay combination devoid of inhibitors was utilized. The absorbance of the enzymes was determined using an ELISA plate quick reader at various wavelengths. The percentage activity of the control enzyme for each inhibitor was evaluated for each enzyme. Protease activity was assayed in vivo in the R. ferrugineus fourth midgut larval instars, which were treated with 1, 10, 50, 100, 500, 1000, and 5000 mg/L of extracts or compounds, measured as described above. Larvae were exposed for 24 h to leaf discs treated with extract and compounds.

metalloprotease [5] = assay: Metalloproteinase activity, azocasein (in vitro); format: biochemical, Rhynchophorus ferrugineus; details: fourth instar larvae midgut homogenate
Description: (§3) A substrate azocasein assessed the metalloproteinases activity in the fourth midgut instar larval homogenate. Ten larvae were carefully removed, dissected, and rinsed repeatedly with NaCl solution (0.9% (w/v). […] After homogenization, the homogenates were centrifuged at 5000 rpm (for 30 min) using a Sigma centrifuge 3k30, and the supernatant was utilized to determine enzyme activity and protein content. The supernatant per experiment (10 µL) was incubated for 20 min at 37 °C, and the volume was adjusted to 60 µL using assay buffer pH 8 before adding azocasein (200 µL, 2% (w/v)). In all instances, 10 µL enzyme samples were incubated for 10 min (except EDTA with 20 min), and EDTA was used as a blocker of metalloproteinase activity before being added to the specific substrate. The reaction was interrupted with 300 µL of trichloroacetic acid (TCA cold, 10% (v/v) and continued at 37 °C for 180 min. The reaction mixture was then centrifuged at 5000 rpm for 20 min (Sigma centrifuge 3k30), sodium hydroxide (10 µL of 10 N) was incorporated into the supernatant, then absorbance was determined using an ELISA plate reader at 450 nm. As a blank, an assay mixture devoid of the enzyme was devoted, the specific activity was determined using the OD450 mg^−1 protein min^−1 value, and a blank solution sample devoid of enzyme solution was determined. To learn more about the proteases found in homogenate preparations of R. ferrugineus fourth midgut larval instars, inhibitors from many different types of mechanisms were used. […] As a control, an assay combination devoid of inhibitors was utilized. The absorbance of the enzymes was determined using an ELISA plate quick reader at various wavelengths. The percentage activity of the control enzyme for each inhibitor was evaluated for each enzyme. […] Larvae were exposed for 24 h to leaf discs treated with extract and compounds.

total proteases [6] = assay: Total protease activity of midgut from larvae treated 24 h (in vivo); design: species or system Rhynchophorus ferrugineus; details: midgut of fourth instar larvae treated for 24 h
Description: as §1

[7] = tested on: trypsin-like serine proteinase; assay: Trypsin-like activity of midgut from larvae treated 24 h (in vivo); design: species or system Rhynchophorus ferrugineus; details: midgut of fourth instar larvae treated for 24 h
Description: The midguts were homogenized in the assay buffer (100 mM Tris-HCl, pH 8.1) and centrifuged for 30 min at 8000 rpm (Sigma 3K 30, rotors No. 12158). […] […] (100 mg/mL in DMF), BAρNA (100 mg/mL in DMSO), and […] (100 mg/mL in DMF) stock substrates were diluted in the assay buffer to 1 mg/mL, and substrate volume was 50 μL. […] The activity was quantified using an ELISA plate reader at a wavelength of 405 nm. As an empty well, an assay combination containing a denaturation enzyme was utilized instead of an active enzyme. […] To learn more about the proteases found in homogenate preparations of R. ferrugineus fourth midgut larval instars, inhibitors from many different types of mechanisms were used. […] As a control, an assay combination devoid of inhibitors was utilized. The absorbance of the enzymes was determined using an ELISA plate quick reader at various wavelengths. The percentage activity of the control enzyme for each inhibitor was evaluated for each enzyme. […] Larvae were exposed for 24 h to leaf discs treated with extract and compounds.

cysteine protease [8] = assay: Cysteine protease activity of midgut from larvae treated 24 h (in vivo); design: species or system Rhynchophorus ferrugineus; details: midgut of fourth instar larvae treated for 24 h
Description: The activity of cysteine proteinase was determined in the fourth midgut instar larval homogenate of R. ferrugineus using the substrate Z-Phe-Arg-MNA [1]. […] The reaction was centrifuged (at 5000 rpm, 6 min), then the absorbance was determined (at 520 nm). The activity of cysteine proteinase was measured using an ELISA quick plate reader at the OD520/60 min/mg of midgut protein. […]
as §2, with “Larvae were exposed for 24 h to leaf discs treated with extract and compounds.” left out

metalloprotease [9] = assay: Metalloprotease activity of midgut from larvae treated 24 h (in vivo); design: species or system Rhynchophorus ferrugineus; details: midgut of fourth instar larvae treated for 24 h
Description: as §3

Structure (SMILES): Cc1ccc(S(=O)(=O)N[C@@H](CCCCN)C(=O)CCl)cc1 [TLCK]
- effect of specific inhibitor on midgut proteases [1]: dramatically suppressed

Structure (SMILES): Cc1ccc(S(=O)(=O)N[C@@H](Cc2ccccc2)C(=O)CCl)cc1 [TPCK]
- effect of specific inhibitor on midgut proteases [1]: dramatically suppressed

Structure (SMILES): C[C@H]1[C@H](C)CC[C@]2(C(=O)O)CC[C@]3(C)C(=CC[C@@H]4[C@@]5(C)CC[C@H](O)C(C)(C)[C@@H]5CC[C@]43C)[C@H]12 [Ursolic acid]
- IC50 against total proteases (in vitro) (total proteases [2]): 67.2 µg/mL
- IC50 against trypsin-like serine proteinase (in vitro) [3]: 57.4 µg/mL
- IC50 against cysteine protease (in vitro) (cysteine protease [4]): 58.2 µg/mL
- IC50 against metalloprotease (in vitro) (metalloprotease [5]): 119.4 µg/mL
- IC50 against total proteases (in vivo) (total proteases [6]): 279.5 µg/mL
- IC50 against trypsin-like serine proteinase (in vivo) [7]: 235.1 µg/mL
- IC50 against cysteine protease (in vivo) (cysteine protease [8]): 685.2 µg/mL
- IC50 against metalloprotease (in vivo) (metalloprotease [9]): 548.3 µg/mL

Structure (SMILES): O=C(O)CI [iodoacetic acid]
- effect of specific inhibitor on midgut proteases [1]: dramatically suppressed

Source: PMC9027599, “Secondary Metabolites in Basil, Bio-Insecticide, Inhibition Effect, and In Silico Molecular Docking against Proteolytic Enzymes of the Red Palm Weevil (Rhynchophorus ferrugineus)” (Plants, 2022)
